Laboratory results: US5256686A, “Phenylalkan(en)oic acid” (Ono Pharmaceutical Co., Ltd., priority 1989, dated 1993)

Biological target: T1, human PMNL LTB4 receptor (Homo sapiens, UniProt Q15722)
T1 construct: endogenous in cells; host or cells: human polymorphonuclear leukocytes (PMNL), intact cells
Experiment: Binding affinity of 3H-LTB4 antagonist to human PMNL LTB4 receptor (inhibition of specific 3H-LTB4 binding)
Settings: 1 nM 3H-LTB4, human PMNLs, 4° C., 20 min
Method: Human PMNLS (1×10^7 cells) were incubated with 1 nM ^3 H-LTB4 in Hanks balanced salt solution (1 ml) at 4° C. for 20 min. in the presence or absence of increasing concentrations of unlabeled LTB4 or various compounds. Free ^3 H-LTB4 was separated from PMNLs-bound ligands by vacuum filteration through Whatman GF/B or C glass fiber filters. The filters were then washed rapidly 4 times with 2.5 ml of the ice-cold phosphate buffered saline. The radioactivity retained in the filter was determined by liquid scintillation counting. Specific binding was defined as the difference between total binding and binding in the presence of 3 μM LTB4 (nonspecific binding). The inhibitory effect of specific ^3 H-LTB4 binding was calculated from the following equation.
The percentage of inhibition (%)=100-(B1 /B0 ×100)
B1 : specific ^3 H-LTB4 binding in presence of antagonist
B0 : specific ^3 H-LTB4 binding in absence of antagonist

T1 sequence (Q15722 whole entry): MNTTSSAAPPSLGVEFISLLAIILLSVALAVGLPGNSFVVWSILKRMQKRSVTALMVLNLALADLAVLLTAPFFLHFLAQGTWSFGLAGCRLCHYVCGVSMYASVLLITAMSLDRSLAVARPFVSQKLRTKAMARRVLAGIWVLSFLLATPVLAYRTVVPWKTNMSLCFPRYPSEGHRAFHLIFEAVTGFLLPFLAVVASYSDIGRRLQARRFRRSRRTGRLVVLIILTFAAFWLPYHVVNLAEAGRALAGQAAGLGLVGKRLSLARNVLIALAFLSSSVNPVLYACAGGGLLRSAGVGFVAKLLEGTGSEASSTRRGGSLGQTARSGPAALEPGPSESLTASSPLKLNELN

Row | Structure (SMILES) | IC50
1 | COc1ccc(/C=C/CCCCOc2ccc(NC(=O)CCCC(=O)N(C)C)cc2CCC(=O)O)cc1 [1 (a), 3-[1-[6-(4-methoxyphenyl)hex-5E-enyl]oxy-4-(4-dimethylaminocarbonylbutanamido)benzen-2-yl]propionic acid] | 45 nM
2 | COc1ccc(/C=C/CCCCOc2ccc(NC(=O)CCCC(=O)Nc3nccs3)cc2CCC(=O)O)cc1 [1 (o), 3-[1-[6-(4-methoxyphenyl)hex-5E-enyl]oxy-4-[4-(2-thiazolyl)aminocarbonylbutanamido]benzen-2-yl]propionic acid] | 20 nM
3 | COc1ccc(/C=C/CCCCOc2ccc(NC(=O)c3cccc(CO)c3)cc2CCC(=O)O)cc1 [4 (b), 3-[1-[6-(4-methoxyphenyl)hex-5E-enyl]oxy-4-(3-hydroxymethylbenzamido)benzen-2yl]propionic acid] | 60 nM
4 | CCCCCC(O)/C=C/CCCCOc1ccc(NC(=O)CCCC(=O)N(C)C)cc1CCC(=O)O (stereo not shown) [5 (b), 3-[1-(5E-7-hydroxydodecenyl)oxy-4-dimethylaminocarbonylbutanamidobenzen-2-yl]propionic acid] | 300 nM
5 | COc1ccc(CCC(O)/C=C/CCCCOc2ccc(NC(=O)CCCC(=O)N(C)C)cc2CCC(=O)O)cc1 (stereo not shown) [5 (c), 3-[1-[5E-7-hydroxy-9-(4-methoxyphenyl)nonenyl]oxy-4-dimethylaminocarbonylbutanamidobenzen-2-yl]propionic acid] | 700 nM
6 | CN(C)C(=O)CCCC(=O)Nc1ccc(OCCCC/C=C/C(O)C2CCCCC2)c(CCC(=O)O)c1 (stereo not shown) [5 (e), 3-[1-(5E-7-hydroxy-7-cyclohexylheptenyl)oxy-4-dimethylaminocarbonylbutanamidobenzen-2-yl]propionic acid] | 350 nM
7 | COc1ccc(/C=C/CCCCOc2ccc(NS(C)(=O)=O)cc2CCC(=O)O)cc1 [6 (b), 3-[1-[6-(4-methoxyphenyl)hex-5E-enyl]oxy-4-methylsulfonylaminobenzen-2-yl]propionic acid] | 30 nM
8 | COc1ccc(/C=C/CCCCOc2ccc(NS(=O)(=O)Cc3ccccc3)cc2CCC(=O)O)cc1 [6 (c), 3-[1-[6-(4-methoxyphenyl)hex-5E-enyl]oxy-4-benzylsulfonylaminobenzen-2-yl]propionic acid] | 200 nM
9 | COc1ccc(/C=C/CCCCOc2ccc(NS(=O)(=O)CCCC(=O)N(C)C)cc2CCC(=O)O)cc1 [7 (a), 3-[1-[6-(4-methoxyphenyl)hex-5E-enyl]oxy-4-(3-dimethylaminocarbonyl-n-propyl)sulfonylaminobenzen-2-yl]propionic acid] | 30 nM
10 | COc1ccc(/C=C/CCCCOc2ccc(N(S(=O)(=O)Cc3ccccc3)S(=O)(=O)Cc3ccccc3)cc2CCC(=O)O)cc1 [10 (c), 3-[1-[6-(4-methoxyphenyl)hex-5E-enyl]oxy-4-bis(benzylsulfonyl)aminobenzen-2-yl]propionic acid] | 1000 nM
11 | COc1ccc(/C=C/CCCCOc2ccc(N3C(=O)CCS3(=O)=O)cc2CCC(=O)O)cc1 [12 (b), 3-[1-[6-(4-methoxyphenyl)hex-5E-enyl]oxy-4-(isothiazolidin-1,1,3-trione-2-yl)benzen-2-yl]propionic acid] | 6 nM
12 | COc1ccc(CCCCCCOc2cccc(OCCCCC(=O)N(C)C)c2CCC(=O)O)cc1 [30 (b), 3-[1-[6-(4-methoxyphenyl)hexyl]oxy-3-(4-dimethylaminocarbonylbutyl)oxybenzen-2-yl]propionic acid] | 150 nM
13 | COc1ccc(/C=C/CCCCOc2ccc(NC(=O)CCCC(=O)N3CCOCC3)cc2CCC(=O)O)cc1 [Example 1, 3-[1-[6-(4-methoxyphenyl)hex-5E-enyl]oxy-4-(5-oxo-5-morpholinopentanamido)benzen-2-yl]propionic acid] | 130 nM
14 | COc1ccc(/C=C/CCCCOc2ccc(NC(=O)CCCC(=O)O)cc2CCC(=O)O)cc1 [Example 2, 3-[1-[6-(4-methoxyphenyl)hex-5E-enyl]oxy-4-(4-carboxylbutanamido)benzen-2-yl]propionic acid] | 40 nM
15 | CCCCCCC(=O)Nc1ccc(OCCCC/C=C/c2ccc(OC)cc2)c(CCC(=O)O)c1 [Example 3, 3-[1-[6-(4-methoxyphenyl)hex-5E-enyl]oxy-4-heptanamidobenzen-2-yl]propionicacid] | 170 nM
16 | COc1ccc(/C=C/CCCCOc2ccc(NC(=O)CCCCO)cc2CCC(=O)O)cc1 [Example 4, 3-[1-[6-(4-methoxyphenyl)hex-5E-enyl]oxy-4-(5-hydroxypentanamido)benzen-2-yl]propionic acid] | 90 nM

Row | Structure (SMILES) | IC50
17 | CCCCCCCCC(O)/C=C/CCCCOc1ccc(NC(=O)CCCC(=O)N(C)C)cc1CCC(=O)O (stereo not shown) [Example 5, 3-[1-(5E-7-hydroxypentadecenyl)oxy-4-(4-dimethylaminocarbonylbutanamido)benzen-2-yl]propionic acid] | 20 nM
18 | COc1ccc(CCCCCCOc2ccc(NS(=O)(=O)c3ccc(C)cc3)cc2CCC(=O)O)cc1 [Example 6, 3-[1-[6-(4-methoxyphenyl)hexyl]oxy-4-(4-methylphenyl)sulfonylaminobenzen-2-yl]propionic acid] | 80 nM
19 | COc1ccc(/C=C/CCCCOc2ccc(N(C(C)=O)S(C)(=O)=O)cc2CCC(=O)O)cc1 [Example 9, 3-[1-[6-(4-methoxyphenyl)hex-5E-enyl]oxy-4-(N-acetyl-N-mesyl)aminobenzen-2-yl]propionic acid] | 10 nM
20 | COc1ccc(/C=C/CCCCOc2ccc(N(S(C)(=O)=O)S(C)(=O)=O)cc2CCC(=O)O)cc1 [Example 10, 3-[1-[6-(4-methoxyphenyl)hex-5E-enyl]oxy-4-dimesylaminobenzen-2-yl]propionic acid] | 13 nM
21 | COc1ccc(/C=C/CCCCOc2ccc(N3C(=O)c4ccccc4C3=O)cc2CCC(=O)O)cc1 [Example 11, 3-[1-[6-(4-methoxyphenyl)hex-5E-enyl]oxy-4-phthalimidobenzen-2-yl]propionicacid] | 45 nM
22 | COc1ccc(/C=C/CCCCOc2ccc(N3C(=O)CCCS3(=O)=O)cc2CCC(=O)O)cc1 [Example 12, 3-[1-[6-(4-methoxyphenyl)hex-5E-enyl]oxy-4-(perhydro-1,2-thiazin-1,1,3-trione-2-yl]benzen-2-yl]propionic acid] | 7 nM
23 | CCCCCCCCC(O)/C=C/CCCCOc1ccc(N2C(=O)CCCS2(=O)=O)cc1CCC(=O)O (stereo not shown) [Example 13, 3-[1-(5E-7-hydroxy-n-pentadecenyl)oxy-4-(perhydro-1,2-thiazin-1,1,3-trione-2-yl)benzen-2-yl]propionic acid] | 45 nM
24 | COc1ccc(/C=C/CCCCOc2ccc(OCCCCC(=O)O)cc2CCC(=O)O)cc1 [Example 14, 3-[1-[6-(4-methoxyphenyl)hex-5E-enyl]oxy-4-(4-carboxylbutoxy)benzen-2-yl]propionic acid] | 70 nM
25 | COc1ccc(/C=C/CCCCOc2ccc(CCCCC(=O)N(C)C)cc2CCC(=O)O)cc1 [Example 18, 3-[1-[6-(4-methoxyphenyl)hex-5E-enyl]oxy-4-(4-dimethylaminocarbonylbutyl)benzen-2-yl]propionic acid] | 25 nM
26 | COc1ccc(/C=C/CCCCOc2ccc(C(=O)CCCC(=O)N(C)C)cc2CCC(=O)O)cc1 [Example 19, 3-[1-[6-(4-methoxyphenyl)hex-5E-enyl]oxy-4-(1-oxo-4-dimethylaminocarbonylbutyl)benzen-2-yl]propionic acid] | 30 nM
27 | CCCCCCCCC(O)/C=C/CCCCOc1cccc(OCCCCC(=O)N(C)C)c1CCC(=O)O (stereo not shown) [Example 29, 3-[1-(5E-7-hydroxypentadecenyl)oxy-3-(4-dimethylaminocarbonylbutyl)oxybenzen-2-yl]propionic acid] | 18 nM
28 | COc1ccc(/C=C/CCCCOc2cccc(CCCCCC(=O)O)c2CCC(=O)O)cc1 [Example 33, 3-[1-[6-(4-methoxyphenyl)hex-5E-enyl]oxy-3-(5-carboxylpentyl)benzen-2-yl]propionic acid] | 15 nM
29 | COc1ccc(/C=C/CCCCOc2cccc(N(S(C)(=O)=O)S(C)(=O)=O)c2CCC(=O)O)cc1 [Example 35, 3-[1-[6-(4-methoxyphenyl)hex-5E-enyl]oxy-3-dimesylaminobenzen-2-yl]propionic acid] | 200 nM
30 | COc1ccc(/C=C/CCCCOc2cccc(N3C(=O)CCCS3(=O)=O)c2CCC(=O)O)cc1 [Example 36, 3-[1-[6-(4-methoxyphenyl)hex-5E-enyl]oxy-3-(perhydro-1,2-thiazin-1,1,3-trione-2-yl)benzen-2-yl]propionic acid] | 150 nM
31 | COc1ccc(/C=C/CCCCOc2cccc(C(=O)CCCCC(=O)N(C)C)c2CCC(=O)O)cc1 [Example 39, 3-[1-[6-(4-methoxyphenyl)hex-5E-enyl]oxy-3-(1-oxo-5-dimethylaminocarbonylpentyl)benzen-2-yl]propionic acid] | 23 nM
32 | COc1ccc(/C=C/CCCCOc2cccc(C(O)CCCCC(=O)N(C)C)c2CCC(=O)O)cc1 (stereo not shown) [Example 40, 3-[1-[6-(4-methoxyphenyl)hex-5E-enyl]oxy-3-(1-hydroxy-5-dimethylaminocarbonylpentyl)benzen-2-yl]propionic acid] | 170 nM

Tested on: Human PMNLs
Experiment: Inhibition of human PMNLs aggregation (LTB4-induced)
Format: cell-based
Settings: PMNL, LTB4 10^-8 M solution, 3 min preincubation at 37° C., pH 7.4
Method: ii) Inhibition of Human PMNLs aggregation
The purified human PMNLs were suspended in Hank's-0.5% BSA medium (pH 7.4) at 1×10^7 cells/ml. The PMNLs suspentions (200 μl) were preincubated with varying concentrations of tasted compounds for 3 min at 37° C. prior to the addition of 10^-8 M solution ([…]) of LTB4 in Hank's solution. PMNLs aggregation in vitro was performed with a multichannel platelet aggregometer. Aggregation was detected as change in light transmission with an aggregometer.

Row | Structure (SMILES) | IC50
33 | COc1ccc(/C=C/CCCCOc2ccc(NC(=O)CCCC(=O)N(C)C)cc2CCC(=O)O)cc1 [1 (a), 3-[1-[6-(4-methoxyphenyl)hex-5E-enyl]oxy-4-(4-dimethylaminocarbonylbutanamido)benzen-2-yl]propionic acid] | 3.6 µM
34 | COc1ccc(/C=C/CCCCOc2ccc(NC(=O)CCCC(=O)Nc3nccs3)cc2CCC(=O)O)cc1 [1 (o), 3-[1-[6-(4-methoxyphenyl)hex-5E-enyl]oxy-4-[4-(2-thiazolyl)aminocarbonylbutanamido]benzen-2-yl]propionic acid] | 3 µM
